Source: publication PMC8533176, “1,5-Benzodiazepin-2(3H)-ones: In Vitro Evaluation as Antiparkinsonian Agents” (Antioxidants, 2021)

What was measured:
[1] = ABTS radical scavenging assay; format: biochemical; conditions: for IC50: 30-min incubation; for ABTS Assay TEAC50: Equivalent antioxidant capacity at Trolox 50 mM; for ABTS Assay TEAC100: Equivalent antioxidant capacity at Trolox 100 mM
Description: The mixture was stored in the dark at room temperature for 16 h. […] All the compounds tested were dissolved in EtOH. […] The degree of decolorization was calculated as the percentage reduction of absorbance. […] Trolox was used as a reference antioxidant.

[2] = Ferric reducing antioxidant power (FRAP) assay; format: biochemical; set-up: FRAP Assay Trolox Equivalents: unit not given here; conditions: for FRAP Assay Antioxidant Capacity (%) at 100 uM: compound at 100 uM; for FRAP Assay Antioxidant Capacity (%) at 200 uM: compound at 200 uM
Description: FRAP reagent was prepared by mixing 10 mL of 300 mM acetate buffer with 1 mL of 10 mM 2,4,6-tripyridyl-S-triazine (TPTZ) in HCl 40 mM and 1mL of FeCl3·6H2O 20 mM. […] Trolox was used as assay control.

[3] = Kinetic solubility by UV spectrometry; format: physicochemical; conditions: PBS 50 mM, aqueous buffer, kinetic from dmso stock
Description: A modified protocol was used from that described by Hoelke et al. for the determination of the kinetic solubility from DMSO compound solutions. A compound calibration curve (compound concentration vs UV absorption) was prepared for each compound with concentrations of 10, 20, 50, 100, and 200 µM. Each compound dilution was carried out by pipetting defined volumes of a 20 mM stock compound solution in DMSO into vials and adding PBS 50 mM to reach a final volume of 1 mL/well. The final amount of DMSO per well was 2%. For the lower compound concentrations, an additional volume of DMSO was added to each well to reach 2% DMSO. Then, 200 µL of each dilution was transferred to a new 96-well culture plate for the measurement of the UV-spectra. One well in each row was left without a compound as a blank, and its UV absorbance was used as an offset correction. The experiments were performed in duplicate.
In parallel, compound saturation solutions were reached and filtered from 20 mM compound stock in DMSO: 10 µL of a 20 mM stock solution was dispensed into 190 µL of PBS 10 mM. The solutions were mixed, shaken on a microplate shaker for two hours, and then 160 µL of each solution was filtered and transferred to a new well plate for UV absorption measurement.
Measurement of the UV-spectra was performed using a Varioskan microplate reader, and spectra were taken in the range of 270–600 nm. Spectral bandwidth was set to 5 nm, and the data pint interval was 10 nm. The experiments were carried out in triplicate.

[4] = test system: SH-SY5Y cells; assay: Cytotoxicity, MTT assay, SH-SY5Y; format: cell-based; conditions: Homo sapiens, MTT, cytotoxicity, read-out: SH-SY5Y IC50
Description: (§1) All compounds tested were dissolved and eventually further diluted in dimethylsulfoxide (DMSO). After overnight incubation, the cells were treated with different compound concentrations (5, 10, 20, 50, 100, 150, 200 µM) in a final volume of 200 µL with four replicates each. […] Cell proliferation or viability was measured using the 3-(4,5-dimethylthiazol-2-yl)-2,5-diphenyl tetrazolium bromide (MTT) assay. The MTT assay was optimized taking into account the number of cells plated per well, to work in the linear part of the cell density vs. MTT absorbance calibration curve, which allows achieving a maximum absorbance in the range of 0.8–1.0 in each well at the end of the experiment. In addition to that, the number of cells seeded for each experiment was optimized in agreement with the time scale of the experiment.
(§2) After cell treatment, 20 µL of MTT (5 mg/mL) was added to each well, and the plate was incubated at 37 °C in the dark for 2 h. Supernatants were removed, and the formazan crystals were solubilized in DMSO (200 µL/well), under 10 min shaking at room temperature. The reduction of MTT was quantified by absorbance at 570 nm in a Varioskan microplate reader (Thermo Fisher Scientific, Vantaa, Finland). Effects of the test compounds on cell viability were calculated using cells treated with a vehicle as a control. For IC50 and LD50 calculations, the data were subjected to linear regression analysis, and the regression lines were plotted for the best fit. The IC50 (inhibition of cell viability) concentrations were calculated using the respective dose–response curves.

[5] = test system: HepG2 cells; assay: Cytotoxicity, MTT assay, HepG2; format: cell-based; conditions: Homo sapiens, HepG2; MTT, cytotoxicity; read-out: HepG2 IC50
Description: as §1, §2

[6] = Chemical reactivity with H2O2; format: physicochemical; conditions: H2O2 500 µM, 37 °C, 4 h, DMEM:F12 without cells
Description: In our case, before running the protection experiments under oxidative stress conditions, we carried out experiments to assess the potential reactivity of compounds 9, 11, 13, and 18 at four different concentrations (5, 10, 20, and 40 µM) with H2O2 500 µM at 37 °C for 4 h in DMEM:F12 (without phenol red, FBS, and cells). Curcumin was used as a control compound.

[7] = test system: SH-SY5Y cells; assay: LDH release under H2O2; format: cell-based, human; conditions: H2O2 250 µM 24 h; compounds 24 h before; Figure 9
[8] = test system: SH-SY5Y cells; assay: Neuroprotection in the 6-OHD neurotoxicity-induced model, MTT; format: cell-based, human; conditions: 6-OHD 250 µM 48 h; compounds 24 h before
[9] = test system: SH-SY5Y cells; assay: Neuroprotection in the MPP+ neurotoxicity-induced model, MTT; format: cell-based, human; conditions: MPP+ 700 µM 48 h; compounds 24 h before
[10] = test system: SH-SY5Y cells; assay: Intracellular ROS levels (DCFH2-DA); format: cell-based, human; conditions: 400 µM H2O2 4 h; compounds 24 h before
Description: Intracellular ROS levels were determined using dichlorofluorescein diacetate (DCFH2-DA) according to Wang et al.. DCFH2-DA is cleaved by intracellular esterases and is oxidized by ROS to form the fluorescent compound DCF, which represents the ROS level. Therefore, 3 × 10^3 SH-SY5Y cells were seeded in 96-well culture black clear bottom plates and after 24 h were treated with the test compound for an additional 24 h. Then, they were exposed to H2O2 for 4 h. After the incubation period, cells were washed twice with Hanks buffer and loaded with 20 µM DCFH2-DA (in FBS-free culture medium) for 40 min in dark at 37 °C in a CO2 incubator. At the end of the dye incubation period, they were washed twice with Hanks buffer to remove the extracellular DCFH2-DA. Fluorescence was measured with a Varioskan microplate reader at λex = 485 nm and λem = 535 nm wavelengths. Results are expressed as a percentage of the fluorescent increase compared with that of the control. All the experiments were performed at least three times in quadruplicate for each compound concentration.

[11] = test system: SH-SY5Y cells; assay: Mitochondrial membrane potential (JC-1); format: cell-based, human; conditions: 400 µM H2O2 4 h; compounds 24 h before at different concentrations
Description: The fluorescent dye 5,5′,6,6′-tetrachloro-1,1′,3,3′-tetraethylbenzimidazolylcarbocyanine iodide (JC-1) was used for measuring MMP [89]. A decrease in fluorescence intensity represents mitochondrial membrane depolarization. For fluorescence ratio detection under oxidative stress conditions, 96-well culture black clear bottom plates were seeded with 3 × 10^3 SH-SY5Y cells, and after 24-h incubation, they were treated with the test compound and left out for 24 h. Then, the cells were exposed to different H2O2 concentrations for 4 h. After the incubation period, the cells were washed twice with Hanks buffer and then stained with 5 µM JC-1 in culture media in the dark in a CO2 incubator at 37 °C for 20 min. At the end of the dye incubation period, cells were washed three times with Hanks buffer, and 200 µL of fresh buffer was added. Cells were analyzed with a Varioskan microplate reader. J-aggregate red fluorescence intensity was measured at λex = 535 nm and λem = 595 nm, while λem = 485 nm and λem = 535 nm was used for J-monomer green fluorescence. Results were expressed as the ratio of fluorescence intensity of J-aggregates to J-monomers. All the experiments were performed three times in quadruplicate for each compound concentration.

[12] = test system: SH-SY5Y cells; assay: Neuroprotection against H2O2-induced oxidative stress, MTT; conditions: H2O2 250 µM 24 h; compounds 5-50 µM 24 h before; Figure 8

Row | Structure (SMILES) | IC50 [1] [µM] | solubility [3] [µM] | Reaction with H2O2 [6] | melting point [°C] | ABTS Assay TEAC50 [1] | ABTS Assay TEAC100 [1] | FRAP Assay Trolox Equivalents [2] | FRAP Assay Antioxidant Capacity (%) at 100 uM [2] [%] | FRAP Assay Antioxidant Capacity (%) at 200 uM [2] [%] | IC50 [4] [µM] | IC50 [5] [µM] | LDH leakage [7] | Neuroprotection, cell viability (MTT), 6-OHD model [8] | Neuroprotection, cell viability (MTT), MPP+ model [9] | Intracellular ROS level reduction [10] | MMP recovery [11] | Neuroprotection effect, cell viability (MTT) [12]
1 | O=C1CC(c2ccccc2)=Nc2cc(F)c(F)cc2N1 [Compound 9, 7,8-Difluoro-4-phenyl-1H-1,5-benzodiazepin-2(3H)-one] | 432 ± 68 | < 50 | did not show any significant reaction |  | 0.36 | 0.18 | 0.43 | 21.9 | 37.1 | > 250 | > 250 | reduced LDH leakage to some degree |  |  |  |  | 
2 | O=C1CC(c2ccccc2F)=Nc2c(F)c(F)c(F)c(F)c2N1 [Compound 5, 6,7,8,9-tetrafluoro-4-(2-fluorophenyl)-1H-1,5-benzodiazepin-2(3H)-one] | 658 ± 96 | < 20 |  | 248.1 | 0.32 | 0.15 | 0.03 | 1.4 | 5.5 | > 250 | > 250 |  |  |  |  |  | 

Stronger by IC50 [1], values ahead:

Row | IC50 [1] [µM] | solubility [3] [µM] | Reaction with H2O2 [6] | melting point [°C] | Structure (SMILES) | ABTS Assay TEAC50 [1] | ABTS Assay TEAC100 [1] | FRAP Assay Trolox Equivalents [2] | FRAP Assay Antioxidant Capacity (%) at 100 uM [2] [%] | FRAP Assay Antioxidant Capacity (%) at 200 uM [2] [%] | IC50 [4] [µM] | IC50 [5] [µM] | LDH leakage [7] | Neuroprotection, cell viability (MTT), 6-OHD model [8] | Neuroprotection, cell viability (MTT), MPP+ model [9] | Intracellular ROS level reduction [10] | MMP recovery [11] | Neuroprotection effect, cell viability (MTT) [12]
3 | 325 ± 55 | < 20 | did not show any significant reaction | 205.7 | O=C1CC(c2ccccc2)=Nc2cc(F)ccc2N1 [Compound 13, 7-Fluoro-4-phenyl-H-1,5-benzodiazepin-2(3H)-one] | 0.36 | 0.19 | 0.79 | 40.7 | 61.6 | > 250 | > 250 |  |  |  |  |  | 
4 | 306 ± 34.6 | < 20 | did not show any significant reaction |  | O=C1CC(c2ccccc2)=Nc2ccc(F)cc2N1 [Compound 11, 8-Fluoro-4-phenyl-1H-1,5-benzodiazepin-2(3H)-one] | 0.35 | 0.17 | 0.56 | 28.9 | 49.8 | > 250 | > 250 |  |  |  |  |  | high variable neuroprotection results at concentrations higher than 10 µM
5 | 269 ± 27.2 | > 200 |  |  | COc1cc(C2=Nc3ccccc3NC(=O)C2)cc(OC)c1OC [Compound 20, 4-(3,4,5-Trimethoxyphenyl)-1H-1,5-benzodiazepin-2(3H)-one] | 0.34 | 0.18 | 0.90 | 48.1 | 63.8 | > 250 | > 250 | reduced LDH leakage to some degree | significant neuroprotection | dose-dependent neuroprotection | lower ROS decrease | 10–25% | significantly improved
